In PubChem BioAssay (NCI):
Where “and” joins values, the source holds several entries; their conditions need not be identical. Equal values may be shown once.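 Where inhibition never reached the appropriate level, the endpoint shown equals the highest concentration tested. Otherwise, values were interpolated linearly from a five-concentration, 48-hour dose response in 96-well plates. At the GI50, growth is halved. Definition used: TGI = concentration required for complete inhibition of growth.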

Tested on: SF-539 CNS
Test: DTP human tumour cell line panel, 48 h

| SMILES | TGI | GI50 |
| --- | --- | --- |
| C#CC1(O)C(COP(=O)(O)OC(COCCCCCCCCCCCCCCCCCC)COP(=O)(O)OCC2OC(n3cc(F)c(=O)[nH]c3=O)CC2O)OC(n2ccc(N)nc2=O)C1O (configuration not stated) | 12.2 µM and 22.3 µM |  |
| Cc1cc(Cl)ccc1Nc1nc(C(F)(F)F)ccc1C(=O)N/N=C/c1ccc(Cl)cc1 | 3.96 µM | 1.7 µM |
| COc1cc2oc3cc(=O)cc4oc(-c5ccccc5)cc(c2c2c1CCC(c1ccccc1)O2)c43 (configuration not stated) | > 100 µM |  |
| c1cc2n(n1)CCN2 | 4990 µM |  |
| COc1cc(Nc2c(C#N)cnc3cc(OCCCN4CCN(C)CC4)c(OC)cc23)c(Cl)cc1Cl | 5.83 µM | 2.3 µM |
| O=CN/C=C/c1cccc(O)c1 | > 83 µM |  |
| Nc1ccc2c(SCc3ccc([N+](=O)[O-])cc3)c3ccccc3nc2c1 | 30.8 µM |  |
| COC1=CC(c2ccc[nH]2)=N/C1=C\c1[nH]c(C)c(C(=O)CCCCC(=O)NC(C)(C)C)c1C | 9.94 µM | 3.27 µM |
| O=c1ccn(C2CC(O)C(CO)O2)c(=O)[nH]1 (configuration not stated) | > 5000 µM | > 5000 µM |
| O=C(N/C(=C/c1ccc(Cl)cc1Cl)c1nc2ccccc2s1)c1ccccc1 | 31.1 µM |  |
| CCOC(=O)c1cc2c(n1Cc1cccc(OC)c1)-c1oncc1CCC2 | 4.68 µM | 1.19 µM |
| COc1c(O)cc2oc(-c3ccc(O)cc3)cc(=O)c2c1O | > 100 µM |  |
| O=c1cc(-c2ccccc2F)[nH]c2ccc(N3CCCC3)cc12 | 0.0134 µM |  |
| c1csc(-c2cn3nc(-c4c[nH]c5ccccc45)sc3n2)c1 | 4.6 µM | 1.49 µM |
| COc1cc2ccccc2oc1=O | > 100 µM |  |
| O=C(O)c1cc2ccc3ccccc3c2oc1=O | > 100 µM |  |
| COC(=O)[C@@]12OC[C@]34[C@H]([C@@H](O)[C@@H]1O)[C@@]1(C)[C@H](O)C(=O)C=C(C)[C@@H]1C[C@H]3OC(=O)C(OC(C)=O)[C@@H]24 (some centres not stated) | 0.0612 µM | 0.0218 µM |

Tested on: CAKI-1 renal
Test: DTP human tumour cell line panel, 48 h

| SMILES | GI50 | TGI |
| --- | --- | --- |
| C[C@]12CCc3sc(NCCc4ccccc4)nc3C1=CC[C@@H]1[C@@H]2CC[C@]2(C)C(=O)CC[C@@H]12 | 3.13 µM | 11.1 µM |
| CCN(Cc1ccc(F)cc1)c1ccc(CO)c(F)c1 | 3.74 µM | 36.4 µM |
| c1ccc(CN2CCC3(CC2)SSC2(CCN(Cc4ccccc4)CC2)S3)cc1 |  | 85.5 µM |
| O=C(Cn1c(=O)c(-c2ccccc2)nc2ccccc21)Nc1ccc(F)cc1 | > 100 µM | > 100 µM |
| CCOC(=O)c1c2c(n(Cc3ccc(Cl)cc3Cl)c1C)-c1nc[nH]c1C(=O)C2=O | 13.4 µM | 31.8 µM |
| COc1cccc2c1C(=O)c1c(O)c3c(c(O)c1C2=O)CC(O)(C(O)CO)CC3OC1CC(N2CCOCC2)C(O)C(C)O1 (configuration not stated) |  | 0.0335 µM |
| O=C(O)C1OC1(c1cccc(Cl)c1)c1ccccc1Cl (configuration not stated) |  | 81.8 µM |
| COC1/C=C/C(C)C(C(C)C(OC)C(C)CCC(=O)C(C)C(C/C=C/N(C)C=O)OC)OC(=O)/C=C/C=C(\C)CC(OC)CC2=CC(=O)O[C@H](C2)C(C)C(OC)CC(OC)/C=C/C(C)C(OC)C1 (some centres not stated) | 0.00682 µM | 0.0308 µM and 0.0117 µM |
| CNCCCn1c2c(c3ccc([N+](=O)[O-])cc3c1=O)C(=O)c1cc(OC)cnc1-2 | 0.0346 µM | 0.342 µM |
| C#CC1(O)C(COP(=O)(O)OC(COCCCCCCCCCCCCCCCCCC)COP(=O)(O)OCC2OC(n3cc(F)c(=O)[nH]c3=O)CC2O)OC(n2ccc(N)nc2=O)C1O (configuration not stated) |  | 6.72 µM |
| Cc1cc(Cl)ccc1Nc1nc(C(F)(F)F)ccc1C(=O)N/N=C/c1ccc(Cl)cc1 | 1.25 µM | 3.85 µM |
| COc1cc2oc3cc(=O)cc4oc(-c5ccccc5)cc(c2c2c1CCC(c1ccccc1)O2)c43 (configuration not stated) |  | > 100 µM |
| c1cc2n(n1)CCN2 |  | 4680 µM |
| COc1cc(Nc2c(C#N)cnc3cc(OCCCN4CCN(C)CC4)c(OC)cc23)c(Cl)cc1Cl | 0.482 µM | 5.13 µM |
| O=CN/C=C/c1cccc(O)c1 |  | > 79.7 µM |
| Nc1ccc2c(SCc3ccc([N+](=O)[O-])cc3)c3ccccc3nc2c1 |  | 28.7 µM |
| COC1=CC(c2ccc[nH]2)=N/C1=C\c1[nH]c(C)c(C(=O)CCCCC(=O)NC(C)(C)C)c1C | 1.39 µM | 4.43 µM |
| O=c1ccn(C2CC(O)C(CO)O2)c(=O)[nH]1 (configuration not stated) | > 5000 µM | > 5000 µM |
| O=C(N/C(=C/c1ccc(Cl)cc1Cl)c1nc2ccccc2s1)c1ccccc1 |  | 30 µM |
| CCOC(=O)c1cc2c(n1Cc1cccc(OC)c1)-c1oncc1CCC2 | 2.12 µM | > 100 µM |
| c1csc(-c2cn3nc(-c4c[nH]c5ccccc45)sc3n2)c1 | 0.997 µM | > 100 µM |
